One assay has as its system rats. The experiment in a line: Experiment B2: oral glucose tolerance test in rats. It counts as in vivo, Wistar rats. To be noted: glucose 5 g/kg perorally at 0 and 60 min, glucagon(1-21) 1 mg/kg at 0, 30, 60, 90 min. The method, then:
The effect of glucagon(1-21) was investigated in rats during an oral glucose tolerance test. 20 male Wistar rats were divided into 2 groups of 10 rats-and dosed as follows: Both groups were dosed with glucose (5 g/kg, perorally) at 0 and 60 minutes. The placebo group was dosed with 1 ml of 0.9% saline with 0.1% HSA intraperitoneally at the times 0, 30, 60, and 90 minutes. The other group was dosed with glucagon(1-21) (1 mg/kg) in 0.9% saline with HSA . at the times 0, 30, 60, and 90 minutes. Blood samples were drawn from the tails at the times -5, 0, 15, 30, 45, 60, 90, and 120 minutes for blood glucose determination. The blood glucose values are stated in Table III below.

Assay [1] has as its system isolated perfused rat pancreas. The following applies: buffer glucose concentration 1.0 mg/ml corresponding to normoglycaemia or below; statement of Danish patent application No. 2885/81; cited from earlier work.

With “glucagon-(1-21)-heneicosapeptide (HSQGTFTSDYSKYLDSRRAQD; Glucagon; UniProt P01275 53-73, looked up, fragment) [glucagon(1-21)]”, the Blood glucose in the assay on rats (time 0 min) was 0.96 mg/mL; in the assay on rats (time 15 min) it was 1.32 mg/mL; in the assay on rats (time 30 min) it was 1.35 mg/mL; with rats (time 45 min), 1.23 mg/mL; in the assay on rats (time 60 min), 1.36 mg/mL; in the assay on rats (time 90 min), 1.37 mg/mL. The Blood glucose in the assay with rats (time 120 min) was 1.37 mg/mL; in the assay on rats (time -5 min), 0.89 mg/mL. Further, the insulin release entry in assay [1] is “does not release insulin”.

Values taken from patent publication EP0082731A1, “The use of peptides as medicaments” (NOVO INDUSTRI A/S, priority 1981, dated 1983).
